# Laboratory results from ChEMBL document CHEMBL3885881, “DrugMatrix”.
# Key:
# [1] = organism: Rattus norvegicus; assay: DrugMatrix - Regimen: Daily Repeat; format: toxicity, organism-based, Sprague-Dawley; parameters: regimen Daily Repeat, gender Male, age 6-8 weeks; conditions: in vivo, po, 330 mg/kg, […], route oral GAVAGE, dose level High, time 14 day, vehicle .5 % CMC
# [2] = organism: Rattus norvegicus; format: toxicity, organism-based, Sprague-Dawley; conditions: in vivo, po, 330 mg/kg, 24 h, route oral GAVAGE, dose level High, time 1 day, vehicle .5 % CMC
# Description: DrugMatrix - Regimen: Single
sequence,measurement,setting,value
FERROCENE,ABSOLUTE BASOPHIL,[1]; tissue Blood,0 CELLS/uL
same,ABSOLUTE EOSINOPHIL,[1]; tissue Blood,150.8 CELLS/uL
same,ABSOLUTE LYMPHOCYTE,[1]; tissue Blood,17564.8 CELLS/uL
same,ABSOLUTE MONOCYTE,[1]; tissue Blood,546.8 CELLS/uL
same,ABSOLUTE SEGMENTED NEUTROPHIL,[1]; tissue Blood,2837.6 CELLS/uL
same,BASOPHIL,[1]; tissue Blood,0%
same,EOSINOPHIL,[1]; tissue Blood,0.8%
same,ERYTHROCYTE COUNT,[1]; tissue Blood,5.16 x10E6/uL
same,HEMATOCRIT,[1]; tissue Blood,32.2%
same,HEMOGLOBIN,[1]; tissue Blood,11.86 G/DL
same,LEUKOCYTE COUNT,[1]; tissue Blood,21.1 x10E3/uL
same,LYMPHOCYTE,[1]; tissue Blood,83.2%
same,MEAN CORPUSCULAR HEMOGLOBIN,[1]; tissue Blood,23.1 pg
same,MEAN CORPUSCULAR HEMOGLOBIN CONCENTRATION,[1]; tissue Blood,36.82 G/DL
same,MONOCYTE,[1]; tissue Blood,2.6%
same,NEUTROPHIL,[1]; tissue Blood,13.4%
same,NUCLEATED RED BLOOD CELLS,[1]; tissue Blood,0 /100WBC
same,PLATELET COUNT,[1]; tissue Blood,1348 x10E3/uL
same,ALANINE AMINOTRANSFERASE,[1]; tissue Plasma,39.6 u/L
same,ALBUMIN,[1]; tissue Plasma,4.42 G/DL
same,ALKALINE PHOSPHATASE,[1]; tissue Plasma,217.6 u/L
same,ASPARTATE AMINOTRANSFERASE,[1]; tissue Plasma,59.8 u/L
same,BLOOD UREA NITROGEN,[1]; tissue Plasma,15.2 mg/dL
same,CARBON DIOXIDE,[1]; tissue Plasma,25 mmol/L
same,CHOLESTEROL,[1]; tissue Plasma,87.2 mg/dL
same,CREATININE,[1]; tissue Plasma,0.19 mg/dL
same,GLUCOSE,[1]; tissue Plasma,182.6 mg/dL
same,LIPASE,[1]; tissue Plasma,10.2 u/L
same,PHOSPHORUS,[1]; tissue Plasma,12.74 mg/dL
same,TOTAL BILIRUBIN,[1]; tissue Plasma,0.22 mg/dL
same,TOTAL PROTEIN,[1]; tissue Plasma,6.84 G/DL
same,URIC ACID,[1]; tissue Plasma,2.68 mg/dL
same,ABSOLUTE EOSINOPHIL,[2]; tissue Blood,50.33 CELLS/uL
same,ABSOLUTE LYMPHOCYTE,[2]; tissue Blood,10757 CELLS/uL
same,ABSOLUTE MONOCYTE,[2]; tissue Blood,373 CELLS/uL
same,ABSOLUTE SEGMENTED NEUTROPHIL,[2]; tissue Blood,1253 CELLS/uL
same,BASOPHIL,[2]; tissue Blood,0%
same,EOSINOPHIL,[2]; tissue Blood,0.33%
same,ERYTHROCYTE COUNT,[2]; tissue Blood,5.36 x10E6/uL
same,HEMATOCRIT,[2]; tissue Blood,33.23%
same,HEMOGLOBIN,[2]; tissue Blood,12.53 G/DL
same,LEUKOCYTE COUNT,[2]; tissue Blood,12.43 x10E3/uL
same,LYMPHOCYTE,[2]; tissue Blood,87%
same,MEAN CORPUSCULAR HEMOGLOBIN,[2]; tissue Blood,23.47 pg
same,MEAN CORPUSCULAR HEMOGLOBIN CONCENTRATION,[2]; tissue Blood,37.7 G/DL
same,MONOCYTE,[2]; tissue Blood,3%
same,NEUTROPHIL,[2]; tissue Blood,9.67%
same,NUCLEATED RED BLOOD CELLS,[2]; tissue Blood,0 /100WBC
same,PLATELET COUNT,[2]; tissue Blood,1189.67 x10E3/uL
same,ALANINE AMINOTRANSFERASE,[2]; tissue Plasma,42.67 u/L
same,ALBUMIN,[2]; tissue Plasma,4.5 G/DL
same,ALKALINE PHOSPHATASE,[2]; tissue Plasma,371.33 u/L
same,ASPARTATE AMINOTRANSFERASE,[2]; tissue Plasma,77 u/L
same,BLOOD UREA NITROGEN,[2]; tissue Plasma,11.67 mg/dL
same,CARBON DIOXIDE,[2]; tissue Plasma,26.33 mmol/L
same,CREATININE,[2]; tissue Plasma,0.18 mg/dL
same,LACTATE DEHYDROGENASE,[2]; tissue Plasma,127.67 u/L
same,LIPASE,[2]; tissue Plasma,8.33 u/L
same,PHOSPHORUS,[2]; tissue Plasma,12.47 mg/dL
same,POTASSIUM,[2]; tissue Plasma,6.09 MEQ/L
same,TOTAL BILIRUBIN,[2]; tissue Plasma,0.13 mg/dL
same,TOTAL PROTEIN,[2]; tissue Plasma,6.33 G/DL
same,URIC ACID,[2]; tissue Plasma,1.03 mg/dL
